From patent US20260297102A1, “HETEROCYCLIC COMPOUNDS AS PARP1 INHIBITORS” (Synnovation Therapeutics, Inc., priority 2023, published 2026) come the findings set out here.

Each structure is given as a SMILES string. pIC50: −log10 of the molar value. A value given as a limit tells only on which side of the number the result lay.

The target in the assay is T1, PARP1 (Homo sapiens, UniProt P09874).
T1 construct: HeLa cells (wide-type with PARP1 gene) were purchased from ATCC; host or cells: HeLa
T1 sequence (P09874 whole entry): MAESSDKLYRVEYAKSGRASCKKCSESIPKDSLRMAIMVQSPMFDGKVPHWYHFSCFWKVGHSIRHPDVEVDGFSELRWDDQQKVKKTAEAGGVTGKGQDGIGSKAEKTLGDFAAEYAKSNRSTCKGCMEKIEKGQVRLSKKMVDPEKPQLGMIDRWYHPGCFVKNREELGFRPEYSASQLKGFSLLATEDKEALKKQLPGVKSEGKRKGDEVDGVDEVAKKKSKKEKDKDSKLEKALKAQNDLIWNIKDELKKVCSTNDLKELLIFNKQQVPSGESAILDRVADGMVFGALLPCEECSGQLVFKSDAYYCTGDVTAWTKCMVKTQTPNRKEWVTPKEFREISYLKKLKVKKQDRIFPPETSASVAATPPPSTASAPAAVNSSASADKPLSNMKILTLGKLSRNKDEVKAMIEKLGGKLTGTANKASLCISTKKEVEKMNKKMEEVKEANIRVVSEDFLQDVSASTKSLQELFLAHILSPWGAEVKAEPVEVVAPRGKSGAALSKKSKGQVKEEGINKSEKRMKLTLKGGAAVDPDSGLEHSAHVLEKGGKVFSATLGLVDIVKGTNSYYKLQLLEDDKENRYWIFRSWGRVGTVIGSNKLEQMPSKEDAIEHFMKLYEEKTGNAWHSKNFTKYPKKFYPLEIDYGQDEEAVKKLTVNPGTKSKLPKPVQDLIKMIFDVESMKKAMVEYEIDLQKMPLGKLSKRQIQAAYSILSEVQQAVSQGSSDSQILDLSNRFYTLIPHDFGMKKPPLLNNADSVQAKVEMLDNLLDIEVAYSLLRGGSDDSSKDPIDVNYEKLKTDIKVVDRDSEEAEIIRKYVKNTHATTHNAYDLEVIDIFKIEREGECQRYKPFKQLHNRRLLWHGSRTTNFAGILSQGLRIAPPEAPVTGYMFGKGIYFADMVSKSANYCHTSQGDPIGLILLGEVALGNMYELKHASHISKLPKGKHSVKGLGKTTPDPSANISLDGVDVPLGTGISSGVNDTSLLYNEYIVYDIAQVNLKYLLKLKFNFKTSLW
Nature of the assay: In-Cell Western Measurement of PARylation in PARP1 WT and Knockout Cells (HeLa_WT). It is filed as cell-based. Particulars: HeLa cells (wild-type PARP1); suppression of hydrogen peroxide-induced PARylation; 60 min pre-treatment, 10 mM H2O2 for 15 min; read-out: HeLa_WT_IC50. Here is the method:
The purpose of this cell-based assay is to measure the potency and selectivity of synthesized PARP inhibitors in suppressing hydrogen peroxide-induced PARylation in cells with and without PARP1 expression. Several cell lines were used in this assay. HeLa cells (wide-type with PARP1 gene) were purchased from ATCC. The HAP1 cell line without the PARP1 gene (#HZGHC003943c006) was purchased from Horizon Discovery. Cells were cultured using complete medium containing 10% fetal bovine serum. One day before the assay, cells were seeded in 96-well plates at the density of 20,000 cells per well in 80 uL complete medium. Compounds were dissolved using DMSO and diluted to the working concentrations using complete medium. Cells were pre-treated with compounds for 60 min and then stimulated with 10 mM hydrogen peroxide for 15 min. After stimulation, cells were immediately fixed using ice-cold methanol for 20 min. After fixation, cells were washed using 1×PBST buffer for 3 times, 5 min each time, to eliminate residual methanol. Cells were blocked for 1 h at room temperature in blocking buffer (10% goat serum, 1% BSA, 0.1% Triton X-100 in PBST). Primary antibody was diluted in blocking buffer at 50 uL per well. Cells were incubated with the primary antibody (Adipogen, AG-20T-0001-M001, 1:300) at 4° C. for 18 h. The wells were then washed using 1×PBST for 3 times, 5 min each time. IRDye® 680RD Goat anti-Mouse IgG (H+L) secondary antibody was diluted at 1/1000 using the diluent buffer and added at 50 uL per well. Secondary antibody incubation was for 1 h at room temperature. Cells were then washed using 1×PBST for 3 times, 5 min each time. The signal was detected and analyzed using LI-COR Odyssey DLx Imaging system. Data were collected and further processed using GraphPad Prism for IC50 estimation.
As to `CCN1C(=O)Nc2c(F)c(CN3CCN(c4ccc(C(=O)NCCO)nc4C)CC3)cc3ncnc1c23` [Compound 7, 5-(4-((3-Ethyl-9-fluoro-2-oxo-2,3-dihydro-1H-pyrimido[4,5,6-de]quinazolin-8-yl)methyl)piperazin-1-yl)-N-(2-hydroxyethyl)-6-methylpicolinamide], the pIC50 was at least 8.00.
As for `CCN1C(=O)Nc2cc(CN3CCN(c4ccc(C(=O)NCC#N)nc4C)CC3)cc3ncnc1c23` [Compound 15, N-(cyanomethyl)-5-(4-((3-ethyl-2-oxo-2,3-dihydro-1H-pyrimido[4,5,6-de]quinazolin-8-yl)methyl)piperazin-1-yl)-6-methylpicolinamide], the pIC50 is at least 8.00.
In the case of `CCN1C(=O)Nc2cc(CN3CCN(c4ccc(C(=O)NCCO)nc4C)CC3)cc3ncnc1c23` [Compound 13, 5-(4-((3-Ethyl-2-oxo-2,3-dihydro-1H-pyrimido[4,5,6-de]quinazolin-8-yl)methyl)piperazin-1-yl)-N-(2-hydroxyethyl)-6-methylpicolinamide] it was at least 8.00.
In the case of `Cc1nc(C(=O)NC2CC2)ccc1N1CCN(Cc2cc3ncc4c5c3c(c2F)NC(=O)N5CCC4)CC1` [Compound 6, N-Cyclopropyl-5-(4-((7-fluoro-5-oxo-2,3,5,6-tetrahydro-1H-[1,6]naphthyridino[1,8,7-cde]quinazolin-8-yl)methyl)piperazin-1-yl)-6-methylpicolinamide] it was at least 8.00; in that of `CCN1C(=O)Nc2cc(CN3CCN(c4ccc(C(=O)N[C@H]5C[C@@H](C#N)C5)nc4C)CC3)cc3ncnc1c23` [Compound 25, N-((1s,3s)-3-cyanocyclobutyl)-5-(4-((3-ethyl-2-oxo-2,3-dihydro-1H-pyrimido[4,5,6-de]quinazolin-8-yl)methyl)piperazin-1-yl)-6-methylpicolinamide], at least 8.00.
Take `CCN1C(=O)Nc2cc(CN3CCN(c4ccc(C(=O)NC5(C#N)CC5)nc4C)CC3)cc3ncnc1c23` [Compound 17, N-(1-cyanocyclopropyl)-5-(4-((3-ethyl-2-oxo-2,3-dihydro-1H-pyrimido[4,5,6-de]quinazolin-8-yl)methyl)piperazin-1-yl)-6-methylpicolinamide]: the pIC50 was at least 8.00.
In the case of `CNC(=O)c1ccc(N2CCN(Cc3cc4ncc5c6c4c(c3F)NC(=O)N6CCO5)CC2)c(C)n1` [Compound 3, 5-(4-((6-Fluoro-4-oxo-2,3,4,5-tetrahydro-1-oxa-3a,5,9-triazapyren-7-yl)methyl)piperazin-1-yl)-N,6-dimethylpicolinamide] it was at least 8.00.
In the case of `CNC(=O)c1ccc(N2CCN(Cc3cc4nn5c6c4c(c3F)NC(=O)N6CCC5)CC2)c(C)n1` [Compound 1, 5-(4-((7-Fluoro-9-oxo-2,3,8,9-tetrahydro-1H-3a,4,8,9a-tetraazacyclopenta[def]phenanthren-6-yl)methyl)piperazin-1-yl)-N,6-dimethylpicolinamide] it was 7.00 to 8.00; in that of `CCN1C(=O)Nc2cc(CN3CCN(c4ccc(C(=O)NCCC#N)nc4C)CC3)cc3ncnc1c23` [Compound 14, N-(2-cyanoethyl)-5-(4-((3-ethyl-2-oxo-2,3-dihydro-1H-pyrimido[4,5,6-de]quinazolin-8-yl)methyl)piperazin-1-yl)-6-methylpicolinamide], at least 8.00.
As for `CCN1C(=O)Nc2cc(CN3CCN(c4ccc(C(=O)N[C@H]5C[C@H](O)C5)nc4C)CC3)cc3ncnc1c23` [Compound 20, 5-(4-((3-ethyl-2-oxo-2,3-dihydro-1H-pyrimido[4,5,6-de]quinazolin-8-yl)methyl)piperazin-1-yl)-N-((1r,3r)-3-hydroxycyclobutyl)-6-methylpicolinamide], the pIC50 was at least 8.00.
In the case of `CCN1C(=O)Nc2cc(CN3CCN(c4ccc(C(=O)NC5CC5)nc4C)CC3)cc3ncnc1c23` [Compound 16, N-cyclopropyl-5-(4-((3-ethyl-2-oxo-2,3-dihydro-1H-pyrimido[4,5,6-de]quinazolin-8-yl)methyl)piperazin-1-yl)-6-methylpicolinamide] it was at least 8.00; in that of `Cc1nc(C(=O)NC2CC2)ccc1N1CCN(Cc2cc3ncc4c5c3c(c2F)NC(=O)N5CCO4)CC1` [Compound 4, N-Cyclopropyl-5-(4-((6-fluoro-4-oxo-2,3,4,5-tetrahydro-1-oxa-3a,5,9-triazapyren-7-yl)methyl)piperazin-1-yl)-6-methylpicolinamide], at least 8.00.
On to `CCN1C(=O)Nc2cc(CN3CCN(c4ccc(C(=O)NC5CCC5)nc4C)CC3)cc3ncnc1c23` [Compound 18, N-cyclobutyl-5-(4-((3-ethyl-2-oxo-2,3-dihydro-1H-pyrimido[4,5,6-de]quinazolin-8-yl)methyl)piperazin-1-yl)-6-methylpicolinamide], for which the pIC50 is at least 8.00.
Consider `CCN1C(=O)Nc2c(F)c(CN3CCN(c4ccc(C(=O)NCC#N)nc4C)CC3)cc3ncnc1c23` [Compound 9, N-(cyanomethyl)-5-(4-((3-ethyl-9-fluoro-2-oxo-2,3-dihydro-1H-pyrimido[4,5,6-de]quinazolin-8-yl)methyl)piperazin-1-yl)-6-methylpicolinamide], for which the pIC50 was at least 8.00.
In the case of `CCN1C(=O)Nc2cc(CN3CCN(c4ccc(C(=O)N[C@H]5C[C@@H](O)C5)nc4C)CC3)cc3ncnc1c23` [Compound 19, 5-(4-((3-ethyl-2-oxo-2,3-dihydro-1H-pyrimido[4,5,6-de]quinazolin-8-yl)methyl)piperazin-1-yl)-N-((1s,3s)-3-hydroxycyclobutyl)-6-methylpicolinamide] it was at least 8.00; in that of `CCN1C(=O)Nc2cc(CN3CCN(c4ccc(C(=O)NC5(CC#N)CC5)nc4C)CC3)cc3ncnc1c23` [Compound 26, N-(1-(cyanomethyl)cyclopropyl)-5-(4-((3-ethyl-2-oxo-2,3-dihydro-1H-pyrimido[4,5,6-de]quinazolin-8-yl)methyl)piperazin-1-yl)-6-methylpicolinamide], at least 8.00; in that of `CCN1C(=O)Nc2c(F)c(CN3CCN(c4ccc(C(=O)NCCC#N)nc4C)CC3)cc3ncnc1c23` [Compound 8, N-(2-cyanoethyl)-5-(4-((3-ethyl-9-fluoro-2-oxo-2,3-dihydro-1H-pyrimido[4,5,6-de]quinazolin-8-yl)methyl)piperazin-1-yl)-6-methylpicolinamide], at least 8.00.
`Cc1nc(C(=O)NC2CC2)ccc1N1CCN(Cc2cc3nn4c5c3c(c2F)NC(=O)N5CCC4)CC1` [Compound 2, N-Cyclopropyl-5-(4-((7-fluoro-9-oxo-2,3,8,9-tetrahydro-1H-3a,4,8,9a-tetraazacyclopenta[def]phenanthren-6-yl)methyl)piperazin-1-yl)-6-methylpicolinamide]: the pIC50 was 7.00 to 8.00.
On to `CNC(=O)c1ccc(N2CCN(Cc3cc4ncc5c6c4c(c3F)NC(=O)N6CCC5)CC2)c(C)n1` [Compound 5, 5-(4-((7-Fluoro-5-oxo-2,3,5,6-tetrahydro-1H-[1,6]naphthyridino[1,8,7-cde]quinazolin-8-yl)methyl)piperazin-1-yl)-N,6-dimethylpicolinamide], for which the pIC50 was at least 8.00.
For `CCN1C(=O)Nc2c(F)c(CN3CCN(c4ccc(C(=O)N[C@H]5C[C@H](O)C5)nc4C)CC3)cc3ncnc1c23` [Compound 10, 5-(4-((3-Ethyl-9-fluoro-2-oxo-2,3-dihydro-1H-pyrimido[4,5,6-de]quinazolin-8-yl)methyl)piperazin-1-yl)-N-((1r,3r)-3-hydroxycyclobutyl)-6-methylpicolinamide], the pIC50 is at least 8.00.
Turning to `CCN1C(=O)Nc2cc(CN3CCN(c4ccc(C(=O)N[C@H]5C[C@H](C#N)C5)nc4C)CC3)cc3ncnc1c23` [Compound 24, N-((1r,3r)-3-cyanocyclobutyl)-5-(4-((3-ethyl-2-oxo-2,3-dihydro-1H-pyrimido[4,5,6-de]quinazolin-8-yl)methyl)piperazin-1-yl)-6-methylpicolinamide], the pIC50 was at least 8.00.
The figure for `CCN1C(=O)Nc2cc(CN3CCN(c4ccc(C(=O)N[C@H]5[C@@H]6COC[C@@H]65)nc4C)CC3)cc3ncnc1c23` [Compound 21, N-((1R,5S,6r)-3-oxabicyclo[3.1.0]hexan-6-yl)-5-(4-((3-ethyl-2-oxo-2,3-dihydro-1H-pyrimido[4,5,6-de]quinazolin-8-yl)methyl)piperazin-1-yl)-6-methylpicolinamide] is at least 8.00.
